What all share (type): cell-based
The test system of assay [1] is intracellular calcium flux in Colo-205 cells. The experiment in a line: Calcium flux assay (FLIPR Calcium 5 Assay Kit, FLIPR3). The following applies: Homo sapiens, 0.6 h, calcium flux measured over 36 minutes, read-out: Colo 205 Calcium Flux assay 384w Boston Ca assay FLIPR3 Colo EC50. On the procedure: Compounds described herein induced ER stress by causing intracellular calcium flux. Calcium flux was measured in Colo-205 cells using the FLIPR® Calcium 5 Assay Kit according to manufacturer's protocol (Molecular Devices, Cat. #R8186) on a FLIPR3 system (Molecular Devices). Calcium flux is measured over 36 minutes. The Colo-205 calcium flux assay data are summarized in Table 3: A<0.6 μM; 0.6 μM≤B<2.0 μM; 2.0 μM≤C<10.0 μM; D≥10.0 μM.

Assay [2] deals with β-catenin-TCF-mediated reporter transcription activity in Colo 205 cells. The experiment in a line: Colo 205 reporter assay (TCF/LEF promoter-driven firefly luciferase). The following applies: Homo sapiens; Colo 205 TCF/LEF luciferase reporter, 5 hours after compound addition, 384 well; read-out: Colo205 IC50. Background: Reporter assays use an easily measured gene product as a stand-in for the process of interest.

The subject of assay [3] is XBP1(u)-luciferase splicing reporter in HepG2 hepatoma cells. The assay is described as follows: HepG2 XBP1 reporter assay (XBP1(u)-Luc). The conditions noted are these: Homo sapiens; for pEC50: 6 hours after compound addition, Table 3, read-out: XBP1-luc HepG2 1 EC50; for pIC50: 6 h, six hours after addition of compound.
Assay [4] deals with NCI-H929 (Multiple myeloma cells). The assay is described as follows: Cell viability (ATPLite) in NCI-H929. The conditions noted are these: Homo sapiens, 96 hours. On the procedure: Cells were removed from liquid nitrogen storage, thawed and expanded in appropriate growth media. Once expanded, cells were seeded in 384-well tissue culture treated plates at 500 cells per well. After 24 hours, cells were treated for either 0 hours or treated for 96 hours with a testing compound (at the concentrations of 100 nM and 2 uM). At the end of either 0 hours or 96 hours, cell status was analyzed using ATPLite (Perkin Elmer) to assess the biological response of cells to the testing compound.

pEC50, pIC50: −log10 of the molar value.

As to `Cc1cc(N2CCCOC[C@@H]2c2cc(F)ccc2Cl)nc(N)n1` (single isomer, unassigned) [I-79], in assay [1], the pEC50 was > 6.22. The negative logarithm of the IC50 (pIC50) in assay [2] was > 6.52.
As to `Cc1cc(N2CCCCCC2c2ccc(S(C)(=O)=O)cc2C)nc(N)n1` (racemic) [I-37, (+/−)-4-methyl-6-(2-(2-methyl-4-(methylsulfonyl)phenyl)azepan-1-yl)pyrimidin-2-amine], the negative logarithm of the EC50 (pEC50) in assay [1] was > 6.22. Besides, in assay [2], the pIC50 was 6.00 to 6.52.
For `CNC(=O)c1ccc([C@H]2COCCCN2c2cc(C)nc(N)n2)c(Cl)c1` [I-150, (S)-4-(4-(2-amino-6-methylpyrimidin-4-yl)-1,4-oxazepan-3-yl)-3-chloro-N-methylbenzamide], the pEC50 in assay [3] is 5.30 to 5.70; in assay [1], > 6.22. In addition, the negative logarithm of the IC50 (pIC50) in assay [2] is 6.00 to 6.52.
Take `Cc1cc(N2CCCOCC2c2cc3nccn3cc2Cl)nc(N)n1` (racemic) [I-191, 4-(3-(6-chloroimidazo[1,2-a]pyridin-7-yl)-1,4-oxazepan-4-yl)-6-methylpyrimidin-2-amine]: the values for the negative logarithm of the EC50 (pEC50) in assay [3] and in assay [1] were 5.70 to 6.22 and > 6.22, respectively. The pIC50 in assay [2] was 6.00 to 6.52.
Turning to `Cc1cc(N2CCCOCC2c2ccc(C(N)=O)cc2Cl)nc(N)n1` (stereo not shown) [I-298], the pEC50 was 5.30 to 5.70 in assay [3] and > 6.22 in assay [1]. In assay [2], the pIC50 is > 6.52.
Consider `COC1CN(c2ccc([C@H]3COCCCN3c3cc(C)nc(N)n3)c(Cl)c2)C1` [I-217, 4-[(3S)-3-[2-chloro-4-(3-methoxyazetidin-1-yl)phenyl]-1,4-oxazepan-4-yl]-6-methyl-pyrimidin-2-amine], for which the negative logarithm of the EC50 (pEC50) in assay [3] and in assay [1] was > 6.22 each time. Further, in assay [2], the pIC50 is > 6.52.
Regarding `Cc1cc(N2CCCOCC2c2cc(N3CCCC3)ccc2Cl)nc(N)n1` (stereo not shown) [I-304], the results for the negative-log EC50 (pEC50) in assay [3] and in assay [1] were 5.70 to 6.22 and > 6.22, respectively. Further, the negative-log IC50 (pIC50) in assay [2] is 6.00 to 6.52.
Consider `Cc1cc(N2CCCOCC2c2ccc(CS(C)(=O)=O)cc2Cl)nc(N)n1` (racemic) [I-208, (+/−)-4-(3-(2-chloro-4-((methylsulfonyl)methyl)phenyl)-1,4-oxazepan-4-yl)-6-methylpyrimidin-2-amine], for which the pEC50 in assay [3] and in assay [1] was > 6.22 in each case. Moreover, the pIC50 in assay [2] is > 6.52.
On to `COc1ccc(Cl)cc1C1CCCCCN1c1cc(C)nc(N)n1` (stereo not shown) [I-21, 4-(2-(5-chloro-2-methoxyphenyl)azepan-1-yl)-6-methylpyrimidin-2-amine], for which the results for the pEC50 in assay [3] and in assay [1] were 5.30 to 5.70 and 5.70 to 6.22, respectively. In addition, the pIC50 in assay [2] is 6.00 to 6.52.
Take `Cc1cc(N2CCCOCC2c2cc(F)ccc2Cl)nc(N)n1` (racemic) [I-70, (+/−)-4-[3-(2-chloro-5-fluoro-phenyl)-1,4-oxazepan-4-yl]-6-methyl-pyrimidin-2-amine]: the pEC50 in assay [1] was > 6.22. Besides, the pIC50 in assay [2] was 6.00 to 6.52.
Take `CC(C)c1cc(N2CCCCCC2c2ccccc2Cl)nc(N)n1` (racemic) [I-16, (+/−)-4-(2-(2-chlorophenyl)azepan-1-yl)-6-isopropylpyrimidin-2-amine]: the pEC50 in assay [3] was 5.30 to 5.70; in assay [1], 5.70 to 6.22. For the same compound, the negative-log IC50 (pIC50) in assay [2] was 6.00 to 6.52.
Regarding `CNc1ccc(Cl)c([C@H]2COCCCN2c2cc(C)nc(N)n2)c1` (single isomer, unassigned) [I-178, 4-[3-[2-chloro-5-(methylamino)phenyl]-1,4-oxazepan-4-yl]-6-methyl-pyrimidin-2-amine], the negative logarithm of the EC50 (pEC50) in assay [3] and in assay [1] was > 6.22 each time. The negative logarithm of the IC50 (pIC50) in assay [2] is > 6.52.
Take `COC(=O)c1ccc(OC)c(C2COCCCN2c2cc(C)nc(N)n2)c1` (stereo not shown) [I-289]: in assay [1], the pEC50 is > 6.22. Also, the pIC50 in assay [2] is 6.00 to 6.52.
On to `Cc1cc(N2CCCOC[C@@H]2c2ccc(F)cc2F)nc(N)n1` (single isomer, unassigned) [I-62], for which the pEC50 in assay [1] was > 6.22. Moreover, in assay [2], the negative logarithm of the IC50 (pIC50) is 6.00 to 6.52.
For the compound `Cc1cc(N2CCCOCC2c2cc(NS(C)(=O)=O)ccc2Cl)nc(N)n1` (racemic) [I-74, (+/−)-N-(3-(4-(2-amino-6-methylpyrimidin-4-yl)-1,4-oxazepan-3-yl)-4-chlorophenyl)methanesulfonamide], in assay [1], the pEC50 is > 6.22. Moreover, in assay [2], the pIC50 was > 6.52.
Take `CNC(=O)c1ccc(OC)c(C2COCCCN2c2cc(C)nc(N)n2)c1` (racemic) [I-82, (+/−)-3-(4-(2-amino-6-methylpyrimidin-4-yl)-1,4-oxazepan-3-yl)-4-methoxy-N-methylbenzamide]: the negative-log EC50 (pEC50) in assay [1] is 5.70 to 6.22. Further, the pIC50 in assay [2] is 6.00 to 6.52.
In the case of `Cc1cc(N2CCCCC[C@@H]2c2ccc(F)cc2C2CC2)nc(N)n1` [I-47, (R)-4-(2-(2-cyclopropyl-4-fluorophenyl)azepan-1-yl)-6-methylpyrimidin-2-amine], the negative logarithm of the EC50 (pEC50) in assay [1] was 5.70 to 6.22. Also, the pIC50 in assay [2] was 6.00 to 6.52.
For the compound `Cc1cc(N2CCCOC[C@@H]2c2cc3c(cc2Cl)N(C)CC3)nc(N)n1` [D-14], the pIC50 in assay [3] is > 6.22; in assay [4], > 6.00.
On to `Cc1cc(N2CCCOCC2c2cc(N)ccc2Cl)nc(N)n1` (racemic) [I-71, (+/−)-4-(3-(5-amino-2-chlorophenyl)-1,4-oxazepan-4-yl)-6-methylpyrimidin-2-amine], for which the pEC50 in assay [1] was > 6.22. Also, the pIC50 in assay [2] is > 6.52.
In the case of `Cc1cc(N2CCCOCC2c2ccc(CS(C)(=O)=O)nc2F)nc(N)n1` [D-33], the pIC50 is 5.30 to 5.70 in assay [3] and ≤ 4.60 in assay [4].
Consider `Cc1cc(N2CCCOC[C@@H]2c2ccc(NC(=O)CCO)cc2Cl)nc(N)n1` [D-6], for which the results for the negative logarithm of the IC50 (pIC50) in assay [3] and in assay [4] were 5.70 to 6.22 and 5.00 to 6.00, respectively.
With `CNc1cc(Cl)c([C@H]2COCCCN2c2cc(C)nc(N)n2)cc1C` [D-26], the results for the negative logarithm of the IC50 (pIC50) in assay [3] and in assay [4] were > 6.22 and > 6.00, respectively.
Consider `Cc1cc(N2CCCOC[C@@H]2c2cc(O)ccc2Cl)nc(N)n1` (single isomer, unassigned) [I-170], for which, in assay [1], the pEC50 was > 6.22. Besides, the pIC50 in assay [2] was > 6.52.
On to `Cc1cc(N2CCCOC[C@H]2c2ccc(OS(C)(=O)=O)cc2OC(F)(F)F)nc(N)n1` [D-158], for which the negative-log IC50 (pIC50) was ≤ 5.30 in assay [3] and ≤ 4.60 in assay [4].
With `CCc1cc(N2CCCOCC2c2cc(O)c(NC(C)=O)cc2Cl)nc(N)n1` [D-110], the pIC50 is > 6.22 in assay [3] and > 6.00 in assay [4].
Take `COc1cc(C2COCCCN2c2cc(C)nc(N)n2)c(Cl)cc1N1CCOCC1` [D-19]: the negative-log IC50 (pIC50) in assay [3] is 5.70 to 6.22; in assay [4] it was 5.00 to 6.00.
In the case of `COc1cc(F)c(F)cc1[C@@H]1COCCCN1c1cc(C)nc(N)n1` [D-5], the negative logarithm of the IC50 (pIC50) was 5.70 to 6.22 in assay [3] and 5.00 to 6.00 in assay [4].
As for `CCOc1cc([C@@H]2COCCCN2c2cc(C)nc(N)n2)c(Cl)cc1OC` [D-153], the values for the pIC50 in assay [3] and in assay [4] were ≤ 5.30 and ≤ 4.60, respectively.
In the same order, the values of `Cc1cc(N2CCCOC[C@H]2c2ccc(CS(C)(=O)=O)cc2OC(F)F)nc(N)n1` [D-152] are ≤ 5.30 and ≤ 4.60.
For the compound `CNC(=O)c1ccc(F)c(C2CCCCCN2c2cc(C)nc(N)n2)c1` (stereo not shown) [I-55, 3-(1-(2-amino-6-methylpyrimidin-4-yl)azepan-2-yl)-4-fluoro-N-methylbenzamide], in assay [1], the negative-log EC50 (pEC50) was > 6.22. In addition, in assay [2], the pIC50 was 6.00 to 6.52.
For `COc1cc(C2COCCCN2c2cc(C)nc(N)n2)c(Cl)cc1OCCCC#N` [D-18], the negative logarithm of the IC50 (pIC50) in assay [3] is 5.70 to 6.22; in assay [4], 5.00 to 6.00.
`Cc1cc(N2CCCOC[C@@H]2c2cc(O)c(OC(F)F)cc2Cl)nc(N)n1` [D-57]: the negative-log IC50 (pIC50) in assay [3] is > 6.22; in assay [4], > 6.00.
Regarding `COc1cc([C@@H]2COCCCN2c2cc(C)nc(N)n2)c(Cl)cc1OCC#N` [D-159], the pIC50 in assay [3] was ≤ 5.30; in assay [4] it was ≤ 4.60.
In the case of `Cc1cc(N2CCCOC[C@@H]2c2ccc(CS(C)(=O)=O)cc2OC(F)(F)F)nc(N)n1` [D-41], the pIC50 in assay [3] was > 6.22; in assay [4], > 6.00.
On the same counts, the results for `Cc1cc(N2CCCOC[C@@H]2c2ccc(S(=O)(=O)C3CCC3)cc2Cl)nc(N)n1` [D-3] are 5.70 to 6.22 and ≤ 4.60.
As to `Cc1cc(N2CCCOC[C@H]2c2cc3c(cc2Cl)CCN3C)nc(N)n1` [D-27], the pIC50 in assay [3] is > 6.22; in assay [4] it was 4.60 to 5.00.
As to `Cc1cc(N2CCCOCC2c2c(F)cccc2Cl)nc(N)n1` (racemic) [I-59, (+/−)-4-(3-(2-chloro-6-fluorophenyl)-1,4-oxazepan-4-yl)-6-methylpyrimidin-2-amine], in assay [1], the pEC50 is > 6.22. In assay [2], the pIC50 is 6.00 to 6.52.
`Cc1cc(N2CCCOC[C@H]2c2ccc(N)cc2Cl)nc(N)n1` [D-29]: the pIC50 in assay [3] was > 6.22; in assay [4] it was ≤ 4.60.
For `Cc1cc(N2CCCOC[C@@H]2c2cc3c(cc2Cl)CCN3C)nc(N)n1` [D-28], the results for the pIC50 in assay [3] and in assay [4] were > 6.22 and > 6.00, respectively.
As to `CCOC(=O)[C@@]1(C)CNc2cc(Cl)c([C@H]3COCCCN3c3cc(C)nc(N)n3)cc2O1` [D-37], the pIC50 in assay [3] was 5.70 to 6.22; in assay [4], ≤ 4.60.
In the case of `CCOC(=O)[C@]1(C)CNc2cc(Cl)c([C@@H]3COCCCN3c3cc(C)nc(N)n3)cc2O1` [D-155], the values for the pIC50 in assay [3] and in assay [4] were ≤ 5.30 and ≤ 4.60, respectively.

One may read the pEC50 as −log10 of the EC50, conventionally taken in molar units. As a reminder, the pIC50 is the IC50 on a negative log10 scale, so that one unit is a factor of ten.

(Values after US11440907B1 (Merck Patent GmbH, priority 2018, dated 2022).)
